Assay results reported in patent publication US7118895B2, “Process for producing aglycon by using diglycosidase and flavor-improved food containing the aglycon and converting agent to be used in the process” (Amano Enzyme Inc., priority 2000, dated 2006).

Test system: Crude diglycosidase
Experiment: Examination of substrate concentration in the conversion into isoflavone aglycons by diglycosidase using soybean materials;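 for Decomposition efficiency: ratio of each glycoside/aglycon within its isoflavone family: percent of the isoflavone family total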
Type: biochemical, Penicillium multicolor IAM7153
Outline: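 Reaction at 55° C, shaken, pH 4.0 (20 mM acetate), using crude diglycosidase from a 1.88 AU/mL enzyme solution on soy flour, soymilk, defatted soybean or soy protein concentrate at 2, 5, 10, 20 or 30% (w/v). Isoflavone aglycons quantified by HPLC of ethanol extracts at 0, 1, 3, 6 h.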

- Decomposition efficiency: ratio of each glycoside/aglycon within its isoflavone family (roasted soy flour, substrate concentration 20%, heat treatment of enzyme no, reaction time 1 h): not detected
- Decomposition efficiency: ratio of each glycoside/aglycon within its isoflavone family (roasted soy flour, substrate concentration 20%, heat treatment of enzyme no, reaction time 3 h): not detected
- Decomposition efficiency: ratio of each glycoside/aglycon within its isoflavone family (roasted soy flour, substrate concentration 20%, heat treatment of enzyme no, reaction time 6 h): not detected
- Decomposition efficiency: ratio of each glycoside/aglycon within its isoflavone family (roasted soy flour, substrate concentration 20%, heat treatment of enzyme yes, reaction time 6 h): not detected
- Decomposition efficiency: ratio of each glycoside/aglycon within its isoflavone family (roasted soy flour, substrate concentration 30%, heat treatment of enzyme no, reaction time 0 h): not detected
- Decomposition efficiency: ratio of each glycoside/aglycon within its isoflavone family (roasted soy flour, substrate concentration 30%, heat treatment of enzyme no, reaction time 1 h): not detected
- Decomposition efficiency: ratio of each glycoside/aglycon within its isoflavone family (roasted soy flour, substrate concentration 30%, heat treatment of enzyme no, reaction time 3 h): not detected
- Decomposition efficiency: ratio of each glycoside/aglycon within its isoflavone family (roasted soy flour, substrate concentration 30%, heat treatment of enzyme no, reaction time 6 h): not detected
- Decomposition efficiency: ratio of each glycoside/aglycon within its isoflavone family (roasted soy flour, substrate concentration 30%, heat treatment of enzyme yes, reaction time 6 h): not detected
- Decomposition efficiency: ratio of each glycoside/aglycon within its isoflavone family (soymilk, substrate concentration 2%, heat treatment of enzyme no, reaction time 0 h): 35.0%
- Decomposition efficiency: ratio of each glycoside/aglycon within its isoflavone family (soymilk, substrate concentration 2%, heat treatment of enzyme no, reaction time 1 h): 15.3%
- Decomposition efficiency: ratio of each glycoside/aglycon within its isoflavone family (soymilk, substrate concentration 2%, heat treatment of enzyme no, reaction time 3 h): 3.5%
- Decomposition efficiency: ratio of each glycoside/aglycon within its isoflavone family (soymilk, substrate concentration 2%, heat treatment of enzyme no, reaction time 6 h): 0.0%
- Decomposition efficiency: ratio of each glycoside/aglycon within its isoflavone family (soymilk, substrate concentration 2%, heat treatment of enzyme yes, reaction time 6 h): 49.5%
- Decomposition efficiency: ratio of each glycoside/aglycon within its isoflavone family (soymilk, substrate concentration 5%, heat treatment of enzyme no, reaction time 0 h): 58.2%
- Decomposition efficiency: ratio of each glycoside/aglycon within its isoflavone family (soymilk, substrate concentration 5%, heat treatment of enzyme no, reaction time 1 h): 24.9%
- Decomposition efficiency: ratio of each glycoside/aglycon within its isoflavone family (soymilk, substrate concentration 5%, heat treatment of enzyme no, reaction time 3 h): 6.9%
- Decomposition efficiency: ratio of each glycoside/aglycon within its isoflavone family (soymilk, substrate concentration 5%, heat treatment of enzyme no, reaction time 6 h): 2.1%
- Decomposition efficiency: ratio of each glycoside/aglycon within its isoflavone family (soymilk, substrate concentration 5%, heat treatment of enzyme yes, reaction time 6 h): 52.5%
- Decomposition efficiency: ratio of each glycoside/aglycon within its isoflavone family (soymilk, substrate concentration 10%, heat treatment of enzyme no, reaction time 0 h): 56.5%
- Decomposition efficiency: ratio of each glycoside/aglycon within its isoflavone family (soymilk, substrate concentration 10%, heat treatment of enzyme no, reaction time 1 h): 31.5%
- Decomposition efficiency: ratio of each glycoside/aglycon within its isoflavone family (soymilk, substrate concentration 10%, heat treatment of enzyme no, reaction time 3 h): 11.9%
- Decomposition efficiency: ratio of each glycoside/aglycon within its isoflavone family (soymilk, substrate concentration 10%, heat treatment of enzyme no, reaction time 6 h): 4.8%
- Decomposition efficiency: ratio of each glycoside/aglycon within its isoflavone family (soymilk, substrate concentration 10%, heat treatment of enzyme yes, reaction time 6 h): 51.2%
- Decomposition efficiency: ratio of each glycoside/aglycon within its isoflavone family (soymilk, substrate concentration 20%, heat treatment of enzyme no, reaction time 0 h): 56.3%
- Decomposition efficiency: ratio of each glycoside/aglycon within its isoflavone family (soymilk, substrate concentration 20%, heat treatment of enzyme no, reaction time 1 h): 37.6%
- Decomposition efficiency: ratio of each glycoside/aglycon within its isoflavone family (soymilk, substrate concentration 20%, heat treatment of enzyme no, reaction time 3 h): 15.7%
- Decomposition efficiency: ratio of each glycoside/aglycon within its isoflavone family (soymilk, substrate concentration 20%, heat treatment of enzyme no, reaction time 6 h): 10.7%
- Decomposition efficiency: ratio of each glycoside/aglycon within its isoflavone family (soymilk, substrate concentration 20%, heat treatment of enzyme yes, reaction time 6 h): 51.0%
- Decomposition efficiency: ratio of each glycoside/aglycon within its isoflavone family (soymilk, substrate concentration 30%, heat treatment of enzyme no, reaction time 0 h): 55.9%
- Decomposition efficiency: ratio of each glycoside/aglycon within its isoflavone family (soymilk, substrate concentration 30%, heat treatment of enzyme no, reaction time 1 h): 42.5%
- Decomposition efficiency: ratio of each glycoside/aglycon within its isoflavone family (soymilk, substrate concentration 30%, heat treatment of enzyme no, reaction time 3 h): 25.4%
- Decomposition efficiency: ratio of each glycoside/aglycon within its isoflavone family (soymilk, substrate concentration 30%, heat treatment of enzyme no, reaction time 6 h): 17.1%
- Decomposition efficiency: ratio of each glycoside/aglycon within its isoflavone family (soymilk, substrate concentration 30%, heat treatment of enzyme yes, reaction time 6 h): 50.0%
- Decomposition efficiency of genistin family in defatted soybean (substrate concentration 2%, heat treatment of enzyme no, reaction time 0 h): 45.4
- Decomposition efficiency of genistin family in defatted soybean (substrate concentration 2%, heat treatment of enzyme no, reaction time 1 h): 31.4
- Decomposition efficiency of genistin family in defatted soybean (substrate concentration 2%, heat treatment of enzyme no, reaction time 3 h): 17.0
- Decomposition efficiency of genistin family in defatted soybean (substrate concentration 2%, heat treatment of enzyme no, reaction time 6 h): 11.4
- Decomposition efficiency of genistin family in defatted soybean (substrate concentration 2%, heat treatment of enzyme yes, reaction time 6 h): 41.8
- Decomposition efficiency of genistin family in defatted soybean (substrate concentration 5%, heat treatment of enzyme no, reaction time 0 h): 43.9
- Decomposition efficiency of genistin family in defatted soybean (substrate concentration 5%, heat treatment of enzyme no, reaction time 1 h): 38.0
- Decomposition efficiency of genistin family in defatted soybean (substrate concentration 5%, heat treatment of enzyme no, reaction time 3 h): 29.6
- Decomposition efficiency of genistin family in defatted soybean (substrate concentration 5%, heat treatment of enzyme no, reaction time 6 h): 19.0
- Decomposition efficiency of genistin family in defatted soybean (substrate concentration 5%, heat treatment of enzyme yes, reaction time 6 h): 41.1
- Decomposition efficiency of genistin family in defatted soybean (substrate concentration 10%, heat treatment of enzyme no, reaction time 0 h): 41.6
- Decomposition efficiency of genistin family in defatted soybean (substrate concentration 10%, heat treatment of enzyme no, reaction time 1 h): 41.5
- Decomposition efficiency of genistin family in defatted soybean (substrate concentration 10%, heat treatment of enzyme no, reaction time 3 h): 35.1
- Decomposition efficiency of genistin family in defatted soybean (substrate concentration 10%, heat treatment of enzyme no, reaction time 6 h): 29.1
- Decomposition efficiency of genistin family in defatted soybean (substrate concentration 10%, heat treatment of enzyme yes, reaction time 6 h): 39.4
Compound: O=C(O)CC(=O)OC[C@H]1O[C@@H](Oc2cc(O)c3c(=O)c(-c4ccc(O)cc4)coc3c2)[C@H](O)[C@@H](O)[C@@H]1O [malonylgenistin, 6″-O-malonylgenistin]
